Assay results as given in patent publication US9771378B2 (Denali Therapeutics, Inc., priority 2014, dated 2017).

Tested on: Aβ42 (human neuroglioma H4 cells expressing human wild type APP751)
Assay: In vitro cell screening assay with sandwich ELISA quantification of Aβ42 peptide
Assay type: cell-based
Settings: H4 cells stably expressing human wild type APP751; Pro293 chemically defined medium; compounds 0.003-10 μM; incubated overnight (16-18 h); supernatant Aβ42 by sandwich ELISA; normalized to DMSO and DAPT; read-out: Aβ42 H4 Prot Fre IC50
How it was run: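 Aβ42 in supernatants was quantified by sandwich ELISA with C-terminal-specific capture and 4G8-HRP detection, absorbance at 450 nm. Stable APP751-expressing human H4 cells received compound at 0.003-10 μM (0.33% DMSO) overnight (16-18 h). IC50 was derived from percent-of-DMSO-control data by nonlinear variable-slope fit.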

| Compound | IC50 |
| --- | --- |
| COc1cc(Nc2ncc3c(n2)N(C)C(C(F)(F)F)CO3)ncc1-n1cnc(C)c1 (single isomer, unassigned; (-)) [Example 236B] | 245 nM |
| COc1cc(Nc2ncc3c(n2)N(C)C(c2cc(F)cc(F)c2)CO3)ccc1C#N (single isomer, unassigned; (-)) [Example 237A, (−)-4-((7-(3,5-difluorophenyl)-8-methyl-7,8-dihydro-6H-pyrimido [5,4-b] [1, 4]oxazin-2-yl)amino)-2-methoxybenzonitrile] | > 3000 nM |
| COc1cc(Nc2ncc3c(n2)N(C)C(CC(F)(F)F)CO3)cnc1-n1cnc(C)c1 (single isomer, unassigned; (-)) [Example 238A] | 648 nM |
| COc1cc(Nc2ncc3c(n2)N(C)C(C2CCS(=O)(=O)CC2)CO3)ccc1-n1cnc(C)c1 (single isomer, unassigned; (-)) [Example 239A, (−)-4-(2-((3-methoxy-4-(4-methyl-1H-imidazol-1-yl)phenyl)amino)-8-methyl-7,8-dihydro-6H-pyrimido [5,4-b] [1, 4]oxazin-7-yl) tetrahydro-2H-thiopyran 1,1-dioxide] | 407 nM |
| COc1cc(Nc2ncc3c(n2)N(C)C(C2COC2)CO3)ccc1-n1cnc(C)c1 (single isomer, unassigned; (-)) [Example 241A] | 390 nM |
| COc1cc(Nc2ncc3c(n2)N(C)C(C(F)(F)F)CO3)ccc1-n1cnc(C)n1 (single isomer, unassigned; (-)) [Example 242A] | 78 nM |
| COc1cc(Nc2ncc3c(n2)N(C)C(C2COC2)CO3)cnc1-n1cnc(C)c1 (single isomer, unassigned; (-)) [Example 243B] | 814 nM |
| COc1cc(Nc2ncc3c(n2)N(C)C(c2cc(F)cc(F)c2)CO3)ccc1-n1cnc(C)n1 (single isomer, unassigned; (-)) [Example 244B] | 935 nM |
| COc1cc(Nc2ncc3c(n2)N(C)C(C2(C(F)(F)F)CC2)CO3)ccc1-n1cnc(C)c1 (single isomer, unassigned; (-)) [Example 245A] | 216 nM |
| COc1cc(Nc2ncc3c(n2)N(C)C(C2(C(F)(F)F)CC2)CO3)cnc1-n1cnc(C)c1 (single isomer, unassigned; (-)) [Example 247A] | 252 nM |
| Cc1cn(-c2ccc(Nc3ncc4c(n3)N3CCCC3CO4)cc2F)cn1 (single isomer, unassigned; (-)) [Example 289B] | 157 nM |
| COc1cc(Nc2ncc3c(n2)N2CCCC2CO3)ccc1-n1cnc(C)c1 (single isomer, unassigned; (-)) [Example 290A, (−)-N-(3-methoxy-4-(4-methyl-1H-imidazol-1-yl)phenyl)-6a, 7,8,9-tetrahydro-6H-pyrimido [5,4-b] pyrrolo [1,2-d] [1, 4] oxazin-2-amine] | 71 nM |
| COc1cc(Nc2ncc3c(n2)N2C(=O)CCC2CO3)cnc1-n1cnc(C)c1 (single isomer, unassigned; (-)) [Example 302B, (−)-2-((5-methoxy-6-(4-methyl-1H-imidazol-1-yl)pyridin-3-yl)amino)-6,6a, 7,8-tetrahydro-9H-pyrimido [5,4-b] pyrrolo [1,2-d] [1, 4] oxazin-9-one] | 2900 nM |
| COc1cc(Nc2ncc3c(n2)N2CCC(F)(F)C2CO3)ccc1-n1cnc(C)c1 (single isomer, unassigned; (-)) [Example 304A, (−)-7,7-difluoro-N-(3-methoxy-4-(4-methyl-1H-imidazol-1-yl)phenyl)-6a, 7,8,9-tetrahydro-6H-pyrimido [5,4-b] pyrrolo [1,2-d] [1, 4] oxazin-2-amine] | 274 nM |
| COc1cc(Nc2ncc3c(n2)N2CCC(F)(F)C2CO3)cnc1-n1cnc(C)c1 (single isomer, unassigned; (-)) [Example 305B, (−)-7,7-difluoro-N-(5-methoxy-6-(4-methyl-1H-imidazol-1-yl)pyridin-3-yl)-6a, 7,8,9-tetrahydro-6H-pyrimido [5,4-b] pyrrolo [1,2-d] [1, 4] oxazin-2-amine] | 582 nM |
| COc1cc(Nc2ncc3c(n2)N(C)[C@@H](c2ccccc2)CO3)ccc1-n1cnc(C)c1 [Example 21A, (S)—N-(3-methoxy-4-(4-methyl-1H-imidazol-1-yl)phenyl)-8-methyl-7-phenyl-7,8-dihydro-6H-pyrimido[5,4-b][1,4]oxazin-2-amine] | 22 nM |
| COc1cc(Nc2ncc3c(n2)N(C)[C@@H](c2ccccc2)CO3)ccc1-c1ccnc(C)c1 [Example 21B, (S)—N-(3-methoxy-4-(2-methylpyridin-4-yl)phenyl)-8-methyl-7-phenyl-7,8-dihydro-6H-pyrimido[5,4-b][1,4]oxazin-2-amine] | 40 nM |

| Compound | IC50 |
| --- | --- |
| COc1cc(Nc2ncc3c(n2)N(C)[C@H](c2ccccc2)CO3)ccc1-n1cnc(C)c1 [Example 22A, (R)—N-(3-methoxy-4-(4-methyl-1H-imidazol-1-yl)phenyl)-8-methyl-7-phenyl-7,8-dihydro-6H-pyrimido[5,4-b][1,4]oxazin-2-amine] | 87 nM |
| COc1cc(Nc2ncc3c(n2)N(C)[C@H](c2ccccc2)CO3)ccc1-c1ccnc(C)c1 [Example 22B, (R)—N-(3-methoxy-4-(2-methylpyridin-4-yl)phenyl)-8-methyl-7-phenyl-7,8-dihydro-6H-pyrimido[5,4-b][1,4]oxazin-2-amine] | 168 nM |
| COC[C@H]1COc2cnc(Nc3ccc(-n4cnc(C)c4)c(OC)c3)nc2N1C [Example 111] | 120 nM |
| COC[C@H]1COc2cnc(Nc3ccc(-n4cnc(C)c4)c(F)c3)nc2N1C [Example 113] | 331 nM |
| Cc1cn(-c2ccc(Nc3ncc4c(n3)N(C)[C@@H](CO)CO4)cc2F)cn1 [Example 170, (S)-(2-((3-fluoro-4-(4-methyl-1H-imidazol-1-yl)phenyl)amino)-8-methyl-7,8-dihydro-6H-pyrimido [5,4-b] [1, 4]oxazin-7-yl) methanol] | 1240 nM |
| COC[C@@H]1COc2cnc(Nc3ccc(-n4cnc(C)c4)c(OC)c3)nc2N1C [Example 176] | 369 nM |
| COc1cc(Nc2ncc3c(n2)N(C)[C@H](CO)CO3)ccc1-n1cnc(C)c1 [Example 177, (R)-(2-((3-methoxy-4-(4-methyl-1H-imidazol-1-yl)phenyl)amino)-8-methyl-7,8-dihydro-6H-pyrimido [5,4-b] [1, 4]oxazin-7-yl) methanol] | 262 nM |
| COc1cc(Nc2ncc3c(n2)N(C)[C@@H](COc2ccccc2)CO3)ccc1-n1cnc(C)c1 [Example 200] | 30 nM |
| COc1cc(Nc2ncc3c(n2)N(C)[C@H](COc2ccccc2)CO3)ccc1-n1cnc(C)c1 [Example 201] | 143 nM |
| COc1cc(Nc2ncc3c(n2)N(C)[C@@H](CC2CC2)CO3)ccc1-n1cnc(C)c1 [Example 217] | 53 nM |
| COc1cc(Nc2ncc3c(n2)N(C)[C@@H](CC2CC2)CO3)cnc1-n1cnc(C)c1 [Example 218] | 39 nM |
| COc1cc(Nc2ncc3c(n2)N(C)[C@@H](C2CC2)CO3)ccc1-n1cnc(C)c1 [Example 224] | 22 nM |
| COc1cc(Nc2ncc3c(n2)N(C)[C@@H](C2CC2)CO3)cnc1-n1cnc(C)c1 [Example 225] | 33 nM |
| COc1cc(Nc2ncc3c(n2)N(C)[C@@H](C2CCC2)CO3)ccc1-n1cnc(C)c1 [Example 227] | 19 nM |
| COc1cc(Nc2ncc3c(n2)N(C)[C@@H](C2CCC2)CO3)cnc1-n1cnc(C)c1 [Example 235] | 17 nM |
| COc1cc(Nc2ncc3c(n2)N(C)[C@@H](C(C)(C)C)CO3)ccc1-n1cnc(C)c1 [Example 240] | 21 nM |
